Values joined by “and” are separate entries in the source; they are usually repeats but may differ in a detail not shown here. Equal values may be shown once. Numbers after ± are expanded uncertainties.

For this series the following is noted: Liquid, Closed cell (Static) method.

By vapor or sublimation pressure is commonly meant the equilibrium pressure above the liquid or solid. With `CC(C)(C)O` [2-methylpropan-2-ol], the “vapor or sublimation pressure” value (364.52 K) is listed as 143 ± 1 kPa.
Regarding `C/C=C\C` [(Z)-2-butene], the “vapor or sublimation pressure” value (364.52 K) was 1190.5 ± 5.3 kPa and 1189.6 ± 5.2 kPa; the “vapor or sublimation pressure” value (364.53 K) is reported as 1190.7 ± 5.2 kPa.
Regarding `CCC(C)O` (stereo unspecified) [butan-2-ol], the “vapor or sublimation pressure” value (364.52 K) was 74 ± 0.9 kPa.
In the case of `CO` [methanol], the “vapor or sublimation pressure” value (364.52 K) was determined as 267.3 ± 1.4 kPa.
Consider `CC(C)O` [propan-2-ol], for which the “vapor or sublimation pressure” value (364.52 K) is recorded as 143.9 ± 1 kPa.

(Values after the NIST ThermoML archive (doi:10.1021/je800088e).)
